{"source": "patent US20170016875A1", "about": "“ANISOTROPIC MUSCULAR TISSUE DEVICES WITH INTEGRATED ELECTRICAL FORCE READOUTS” (President and Fellows of Harvard College, priority 2014, published 2017)", "system": "neonatal rat ventricular myocytes (NRVM)", "assay": "spontaneous beating of NRVM muscle tissue layer on cantilever device, resistance readout", "format": "cell-based", "conditions": "after addition of 10 μM isoproterenol; NRVM muscle tissue layer in incubator, resistance versus time (FIG. 12B)", "method": "After placement of the wells, neonatal rat ventricular myocytes (NRVM) were seeded at a concentration of 0.3 Mio cells per ml medium, and the contraction of the resulting muscle tissue layers was tested on day 4-5 after seeding. Prior to testing, the cantilevers were released by lowering the sample temperature to room temperature to dissolve the […] sacrificial layer, meaning that the flexible substrate cantilevers were released from the underlying rigid glass substrate after development and growth of the tissue.", "data": [{"smiles": "CC(C)NCC(O)c1ccc(O)c(O)c1", "note": "(stereo not shown) [isoproterenol]", "values": [{"measurement": "spontaneous beating frequency of the cells", "value": "significantly increased"}]}]}
